Reference: PubChem BioAssay (NCI)
“And” between values parts separate entries of the source, which are not always exact repeats. Equal entries are not always repeated.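 Briefly, cells in 96-well plates were exposed to five compound concentrations for 48 h, and endpoints were estimated by linear interpolation. Here, GI50 denotes the concentration required for 50% inhibition of growth. TGI: total growth inhibition.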

How the values were obtained:
Experiment in all cases: NCI tumour cell line growth inhibition, 48 h
SK-OV-3 ovarian = system: SK-OV-3 ovarian
M14 melanoma = system: M14 melanoma
SR leukemia = system: SR leukemia
KM12 colon = system: KM12 colon
PC-3 prostate = system: PC-3 prostate
SK-MEL-2 melanoma = system: SK-MEL-2 melanoma
EKVX NSCLC = system: EKVX NSCLC
MDA-N = system: MDA-N
DU-145 prostate = system: DU-145 prostate
MALME-3M melanoma = system: MALME-3M melanoma
UACC-257 melanoma = system: UACC-257 melanoma
A549 NSCLC = system: A549 NSCLC
HT29 colon = system: HT29 colon
NCI-H23 lung = system: NCI-H23 lung
TK-10 renal = system: TK-10 renal

Structure (SMILES)	TGI (SK-OV-3 ovarian) [µM]	TGI (M14 melanoma) [µM]	TGI (SR leukemia) [µM]	TGI (KM12 colon) [µM]	TGI (PC-3 prostate) [µM]	TGI (SK-MEL-2 melanoma)	TGI (EKVX NSCLC) [µM]	TGI (MDA-N) [µM]	TGI (DU-145 prostate) [µM]	TGI (MALME-3M melanoma) [µM]	TGI (UACC-257 melanoma) [µM]	TGI (A549 NSCLC) [µM]	TGI (HT29 colon) [µM]	TGI (NCI-H23 lung) [µM]	TGI (TK-10 renal) [µM]	GI50 (SK-MEL-2 melanoma)
O=S1SC(=S)C2C=CC=NC21 (configuration not stated)	> 100	29.6	77.7	> 100	30.5	36.6 µM	26.1	27.8	31.4	36.3	29	60.5	30.8	43.1	32.2	
C[C@@H]1S[C@H](c2c(F)cccc2Cl)n2c1nc1ccccc12	55.9	42	67.7	20.5	23.7	29.3 µM	56	21.5	> 100	30.6	38.5	61.3	29.3	28	> 100	
CC(=O)OCC1OC(n2c(C)c(C(C)=O)c(-c3ccco3)c(C#N)c2=S)C(OC(C)=O)C(OC(C)=O)C1OC(C)=O (configuration not stated)	> 100	> 100	> 100	> 100	> 100	98.4 µM and > 100 µM	> 100	> 100	> 100	> 100	> 100	> 100	> 100	> 100	> 100	27.4 µM and 74.4 µM
Cn1c(=O)c2ccccc2[n+]2c(-c3cccc([N+](=O)[O-])c3)csc12	> 100	> 100	71.5	> 100	> 100	> 100 µM	> 100	> 100	> 100	> 100	> 100	> 100	> 100	> 100	> 100	
Clc1cccc(-c2nc3cccc4c3n2Cc2ncccc2-4)c1	> 100	> 100	> 100	> 100	> 100		> 100	> 100	> 100	> 100	> 100	> 100	> 100	> 100	> 100	
COC(=O)c1cc(CC2Cc3cc4c(cc3C2=O)CCC4)cc2c1CCC2 (configuration not stated)	> 100	> 100	> 100	> 100	> 100	> 100 µM	> 100	> 100	> 100	> 100	> 100	> 100	> 100	> 100	> 100	
CC1(C)CC[C@]2(C(=O)O)CC[C@]3(C)C(=CCC4=C5C[C@H](O)[C@H](O)[C@@](C)(CO)[C@@]5(C)CC[C@]43C)[C@@H]2C1	> 100	> 100	> 100	> 100	> 100	> 100 µM	> 100	> 100	> 100	> 100	> 100	> 100	> 100	> 100	> 100	
COc1ccc(-c2sc(Br)c3c2C(=O)C2OC(=O)NC32)cc1OC (configuration not stated)	> 100	> 100	> 100	> 100	> 100	> 100 µM	> 100	> 100	> 100	> 100	> 100	> 100	> 100	> 100	> 100	
CCCCCCCCOC(=O)C12Oc3ccc(-c4ccc5c(c4O)C(O)=C4C(=O)CC(C)C(O)C4(C(=O)OCCCCCCCC)O5)c(O)c3C(O)=C1C(=O)CC(C)C2O (configuration not stated)	> 100	> 100	20.3	> 100	> 100	47.4 µM	> 100	> 100	> 100	> 100	> 100	> 100	> 100	31.5	> 100	
Cc1cc(N2CCOCC2)nc2ccc(Cc3ccc4nc(N5CCOCC5)cc(C)c4c3)cc12	> 100	> 100	> 100	> 100	> 100	> 100 µM	> 100	> 100	> 100	> 100	> 100	> 100	49.3	> 100	> 100	
C/C(=N\NC(=O)c1ccncc1)c1sc(-n2nc(-c3ccccc3)cc2-c2ccccc2)nc1C	> 31.6	> 31.6	> 31.6	> 100	> 31.6	> 31.6 µM	> 100	> 100	> 31.6	> 100	> 31.6	> 31.6	> 100	> 31.6	> 31.6	
COC(=O)/C=C/CCC#Cc1ccccc1C#CCC/C=C/C(=O)OC	> 100	> 100	> 100	> 100	> 100		> 100	> 100	> 100	> 100	> 100	> 100	40.4	42.9	> 100	
CCOC(=O)c1ncn(CCc2ccc(Cl)cc2)c1C		> 100	> 100	> 100	> 100	> 100 µM	> 100	> 100	> 100	> 100	> 100	> 100	> 100	> 100	> 100	
CCN(CC)C1Oc2cc3c(cc2C(c2cc(OC)c(O)c(OC)c2)C1C)OCO3 (configuration not stated)	66.3	20.4	32.7	22.5	> 75.1	> 95.7 µM	> 75.6	4.8	> 89.3	30	> 100	60	22.2	> 100	72.5	
COCn1cc(C2=C(C)C(=O)C(C)=C(C)C2=O)cn1		> 100	65.9	> 100	> 100	> 100 µM	32.5	> 100	> 100	> 100	> 100	> 100	> 100	> 100	> 100	
